We go through one substance from US6468983B2, “RNase L activators and antisense oligonucleotides effective to treat telomerase-expressing malignancies” (The Cleveland Clinic Foundation, priority 1997, dated 2002).

Where “and” joins values, the source holds several entries; their conditions need not be identical. Equal values may be shown once. Entries after “also recorded” stand apart in the source; their conditions may differ.

One data set has as its system telomerase RNA (hTR). The data set is described as follows: RT-PCR for telomerase RNA in oligonucleotide-treated U251-MG cells. Format: cell-based, human. To be noted: oligonucleotide 5 μM, 5 hours treatment. How it is done:
Chimeric oligonucleotides were synthesised on solid supports and purified as described previously (Torrence et al 1993; Lesiak et al 1993; Xiao et al 1994, 1996; Cirino et al 1997). Tumor cells were seeded at 3×10^5 cells/well (3 ml) in 6-well plates and incubated overnight at 37° C. Cells were then treated with oligonucleotides (5 μM). Five hours later total RNA was isolated by using Trizol solution (GIBCO BRL, Grand Island, N.Y.). Expression of telomerase RNA was determined with RT-PCR. The RNA was reverse transcribed into complementary DNA (cDNA) with random oligos used as a primer, and then the cDNA was diluted three times with buffer 10×PCR buffer (Perkin-Elmer, Norwalk, Conn.) at a final concentration of 1:4. The DNA at each dilution was amplified using primers to antisense and sense sequences on opposite sides of the human telomerase RNA sequence, 5′-[…]-3′ (SEQ ID NO:4) and 5′[…]-3′ […], respectively, or to the GAPDH coding sequence, 5′-[…]-3′ […] and 5′[…]-3′ (SEQ ID NO:7), respectively, producing DNA fragments of 400 bp for telomerase cDNA and 508 bp for the GAPDH cDNA, respectively. The PCR went for 30 cycles (94° C., 1 min; 55° C., 1 min; 72° C., 2 min) for telomerase and 30 cycles (94° C., 1 min; 60° C., 1 min; 74° C., 3 min) for GAPDH. The PCR products were analyzed by 1.2% agarose gel electrophoresis and ethidium bromide staining.
Aliquots of U251-MG cells were treated with the “active” oligonucleotide and the two controls for 5 hours. RNA was then prepared from these cells and subjected to RT-PCR to detect telomerase RNA. […] In contrast, telomerase RNA (hTR) was present in cells treated with the control oligonucleotides; spA2-anti-hTR and spA4-anti-(M6)hTR. Thus, hTR could be selectively destroyed in U251-MG cells. Since the RT-PCR assay is not quantitative, it was not possible to assess whether treatment with the spA2-anti-hTR , which has the fully complementary target sequence, had any antisense effect by itself (see below). […]

Another data set deals with U251-MG cells. Briefly: TUNEL assay on cultured cells treated with spA4-anti-hTR. Format: cell-based, human. The conditions noted are these: treated cells fixed and stained.
Data set [1] concerns U373 human malignant glioma cells. Briefly: TUNEL assay for apoptosis, oligonucleotide plus lipofectamine. Format: cell-based. How it is done: To further determine whether treatment with oligonucleotides induced apoptosis, tumor cells and tissues were stained by the terminal deoxynucleotidyl transferase (TdT)-mediated DUTP nick end labeling (TUNEL) technique using Apo-Tag kit (peroxidase conjugated) (Oncor Inc., Gaithersburg, Md.). The staining of apoptotic cells was done on U373MG cells. Oligonucleotides with lipofectamine was added to the cells every day. The final concentrations were 0.5 micromolar and 8 microgram/ml for oligo and lipofectamine, respectively. Pictures were taken after 3 days of treatment.

For a further data set, the system named is U251-MG tumors. The data set is described as follows: Subcutaneous xenografts in nude mice, intratumoral oligonucleotide. Format: in vivo, Balb/c nude mice. To be noted: for reduction in tumor size during the treatment period: intratumoral daily for 14 days, relative to starting size. The procedure: (§1) U251-MG and U373 MG tumor cells (1.0×10^6 cells in 0.1 ml serum free DMEM and 0.1 ml Matrigel) were injected subcutaneously into the right flank of 8-12 week-old female Balb/c nude mice (5 mice for each treatment group). Tumor growth was monitored using calipers every 2- or 3-days. Tumor volume (V) was calculated as (L×W^2)/2, where L=length (mm) and W=width (mm). Oligonucleotide treatment was initiated when the tumors reached an average tumor volume of 60-100 mm^3 (about four to five weeks after injection). Oligonucleotides (5 nmol/20 microliter sterile distilled water) were administered by injecting them directly into the tumor every 24 hr for 7-14 days. Some experiments included lipofectamine at 1 microliter per 20 microliters final volume of oligonucleotide solution. Mice were sacrificed by cervical dislocation the day after the final injection and the tumors were removed, frozen rapidly and 12 μm sections were prepared for histological studies. During all of these experiments, which were approved by the CCF Research Programs Committee, the animals were housed and handled in accordance with the National Institutes of Health guidelines.

The next data set relates to U373-MG tumors. The description is as above. Format: in vivo, Balb/c nude mice. To be noted: 5 nmol intratumoral daily for 7 days. The procedure: as §1
Another data set deals with A375 tumors. Briefly: Subcutaneous tumors in nude mice, intratumoral oligonucleotide plus lipofectamine. Format: in vivo. The procedure:
(§2) RCC and A375 tumor cells (500,000 cells per tumor) were injected subcutaneously. The treatments, begun 8 days after tumor cell inoculation, was with 40 microliter of 25 micromolar SpA4-anti-hTR plus 1 microliter (2 microgram) lipofectamine injected in each tumor every day.

Another data set has as its system RCC tumors. The data set is described as above. Format: in vivo. How it is done:
as §2

A further data set relates to U373-MG cells. Briefly: Combination with cisplatin in vitro, MTT assay. Format: cell-based, human. The conditions noted are these: treatment with spA4-anti-hTR. How it is done: FIG. 17. Effect of combining 2-5A-anti-hTR with cisplatin on malignant glioma U373-MG cells in vitro and in vivo. FIG. 17A Tumor cells were treated with 2-5A-anti-hTR (0.5 μM, every 24 hr) mixed with Lipofectamine (1.0 μl/25 μl DMEM) or cisplatin for three days, and their viability was determined by MTT assay. Values represent the means±S.D. FIG. 17B Tumors from U373-MG cells (1.0×10^6 cells in 0.05 ml serum free DMEM and 0.05 ml matrigel) were established subcutaneously in nude mice. After four or five weeks when the tumors were approximately 60-100 mm^3, spA4-anti-hTR (5 nmol/20 μl sterile distilled water) were administrated directly into the tumors daily for 7 days. Cisplatin (1.0 or 5.0 mg/kg/mice) was administered intraperitoneally on Days 1, 3 and 5. Five Mice were used in each treatment group. Tumor volume was then determined using calipers, and the mean sizes ±S.D. were calculated.
To determine if the anti-malignant glioma cell activity of chemotherapeutic agent, cisplatin, could be enhance with SpA4-anti-hTR, a combination therapy protocol was devised (FIG. 17). The point at which 50% cell death was achieved was using 1 microgram per ml of cisplatin plus 0.5 micromolar of SpA4-anti-hTR; whereas in the absence of SpA4-anti-hTR, >10 micrograms per ml of cisplatin were required to achieve 50% cell death (FIG. 17). […] Furthermore, we determined the effect of combining 2-5A-anti-hTR with cisplatin on U373-MG cells in vitro and in vivo. […] The IC50 of cisplatin was reduced from 10.0 to 1.0 μg/ml by combination of spA4-anti-hTR.

On to “Sp5′A2′p(5′A2p)3-[(Bu)p]2-5′GCG CGG GGA GCA AAA GCA C3′-3′T5′ (antisense GCGCGGGGAGCAAAAGCAC; 5'-thiophosphate 2-5A tetramer, butanediol linkers, 3'-3'T cap, chemistry not fully specified) [spA4-anti-hTR, 2-5A tetramer linked by butanediol linkers to 19-mer antisense against human telomerase RNA nucleotides 76 to 94]”, for which the “telomerase RNA (hTR) detected by RT-PCR” value with telomerase RNA (hTR) is reported as “no detectable telomerase RNA”. Moreover, the “apoptotic cell death by TUNEL (in words)” value with U251-MG cells is on record as “increased number of darkly staining nuclei”. Moreover, in data set [1] (0.5 micromolar daily plus lipofectamine for 3 days), the “apoptosis by TUNEL (in words)” value is “apoptosis was clearly visible”. In data set [1] (over time of treatment), the “apoptosis by TUNEL assay for DNA breakage (in words)” value was “time-dependent increase in apoptotic cells; also recorded: caused apoptosis”. For the same substance, the “tumor growth (in words)” value with U251-MG tumors (5 nmol intratumoral daily for 7 days) and in the data set with U373-MG tumors was “significantly suppressed the growth; also recorded: failed to grow progressively” in each case. Moreover, in the data set on U251-MG tumors (14 days treatment), the “average net weight of the tumors after treatment” value was 54.0 ± 28.7 mg. In the data set with U251-MG tumors (days 8-14 of the treatment compared with first 7 days), the “further change in tumor size (in words)” value is recorded as “only a marginal additional reduction in size”. The “reduction in tumor size during the treatment period” value is 48% and 50% in the data set with U251-MG tumors; 50% in the data set with U251-MG tumors (listed as 2-5A-anti-hTR). The “increase in tumor size” value worked out at 17% in the data set with A375 tumors (A375, 40 microliter of 25 micromolar plus lipofectamine intratumoral daily, seven days) and 14% with RCC tumors (RCC, 40 microliter of 25 micromolar plus lipofectamine intratumoral daily, seven day period). For the same substance, the “tumor cell growth (in words)” value is “Suppression” with A375 tumors (A375 subcutaneous, oligonucleotide plus lipofectamine from day 8) and “Suppression” in the data set with RCC tumors (RCC subcutaneous, oligonucleotide plus lipofectamine from day 8). In the data set on U373-MG cells, the “susceptibility of U373-MG cells to cisplatin (in words)” value was “increased the susceptibility”.
